Data: paper PMC5669819 (Molecular cancer therapeutics, 2017)

Key:
MEK1 = MEK1 (Homo sapiens, UniProt Q02750); assay type: biochemical
PI3Kα = PI3Kα (Homo sapiens, UniProt P42336); test: Adapta TR-FRET lipid kinase assay with purified enzyme; assay type: biochemical
Sequence of PI3Kα (P42336 whole entry): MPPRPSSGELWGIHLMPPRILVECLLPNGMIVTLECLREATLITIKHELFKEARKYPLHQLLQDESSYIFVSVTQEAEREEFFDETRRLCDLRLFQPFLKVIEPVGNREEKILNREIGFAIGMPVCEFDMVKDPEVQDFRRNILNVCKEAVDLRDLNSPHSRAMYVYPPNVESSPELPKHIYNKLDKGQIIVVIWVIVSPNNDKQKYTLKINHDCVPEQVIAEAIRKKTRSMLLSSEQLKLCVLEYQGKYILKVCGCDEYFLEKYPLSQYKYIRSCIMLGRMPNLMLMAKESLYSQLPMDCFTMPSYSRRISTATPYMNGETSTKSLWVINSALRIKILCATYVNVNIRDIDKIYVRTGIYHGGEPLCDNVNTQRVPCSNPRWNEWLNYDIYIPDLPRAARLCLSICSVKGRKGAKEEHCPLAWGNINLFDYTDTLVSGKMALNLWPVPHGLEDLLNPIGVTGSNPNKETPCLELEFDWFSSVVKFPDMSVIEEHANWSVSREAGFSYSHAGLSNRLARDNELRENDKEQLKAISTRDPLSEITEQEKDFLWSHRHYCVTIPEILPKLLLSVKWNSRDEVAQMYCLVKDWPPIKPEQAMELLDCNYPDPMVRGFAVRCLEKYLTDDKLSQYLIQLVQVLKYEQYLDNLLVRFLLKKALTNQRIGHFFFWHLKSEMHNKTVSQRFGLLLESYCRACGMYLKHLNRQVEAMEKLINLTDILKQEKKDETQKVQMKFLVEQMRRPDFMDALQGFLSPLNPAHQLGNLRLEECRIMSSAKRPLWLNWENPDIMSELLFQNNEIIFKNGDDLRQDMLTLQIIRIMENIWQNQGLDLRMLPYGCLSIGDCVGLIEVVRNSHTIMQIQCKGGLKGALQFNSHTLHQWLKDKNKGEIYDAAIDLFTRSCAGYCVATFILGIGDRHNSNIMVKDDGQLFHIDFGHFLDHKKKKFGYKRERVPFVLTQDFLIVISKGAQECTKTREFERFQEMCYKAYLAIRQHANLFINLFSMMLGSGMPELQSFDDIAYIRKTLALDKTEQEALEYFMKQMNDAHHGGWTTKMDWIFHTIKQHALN
Sequence of PI3Kα (P27986 2-724 partner): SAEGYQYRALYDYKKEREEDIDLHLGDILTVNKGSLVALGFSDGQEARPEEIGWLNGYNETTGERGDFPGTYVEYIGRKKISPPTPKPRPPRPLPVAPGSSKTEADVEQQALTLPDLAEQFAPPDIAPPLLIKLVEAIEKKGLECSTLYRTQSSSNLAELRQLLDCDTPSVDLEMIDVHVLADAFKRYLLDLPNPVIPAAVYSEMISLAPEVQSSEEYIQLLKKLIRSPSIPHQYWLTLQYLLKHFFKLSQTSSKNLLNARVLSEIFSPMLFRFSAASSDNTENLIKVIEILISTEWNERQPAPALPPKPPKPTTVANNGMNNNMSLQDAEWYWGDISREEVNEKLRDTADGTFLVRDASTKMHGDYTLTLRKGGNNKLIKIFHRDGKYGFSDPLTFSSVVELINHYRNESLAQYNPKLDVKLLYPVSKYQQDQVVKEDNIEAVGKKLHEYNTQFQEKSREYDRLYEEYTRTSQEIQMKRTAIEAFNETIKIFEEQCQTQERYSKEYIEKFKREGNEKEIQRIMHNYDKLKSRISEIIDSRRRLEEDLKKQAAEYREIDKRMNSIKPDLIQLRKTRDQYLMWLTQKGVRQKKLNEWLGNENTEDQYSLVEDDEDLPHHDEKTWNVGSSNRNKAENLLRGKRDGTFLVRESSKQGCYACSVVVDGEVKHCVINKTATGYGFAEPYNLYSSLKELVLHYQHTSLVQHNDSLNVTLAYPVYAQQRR

Sequence of MEK1 (Q02750 whole entry): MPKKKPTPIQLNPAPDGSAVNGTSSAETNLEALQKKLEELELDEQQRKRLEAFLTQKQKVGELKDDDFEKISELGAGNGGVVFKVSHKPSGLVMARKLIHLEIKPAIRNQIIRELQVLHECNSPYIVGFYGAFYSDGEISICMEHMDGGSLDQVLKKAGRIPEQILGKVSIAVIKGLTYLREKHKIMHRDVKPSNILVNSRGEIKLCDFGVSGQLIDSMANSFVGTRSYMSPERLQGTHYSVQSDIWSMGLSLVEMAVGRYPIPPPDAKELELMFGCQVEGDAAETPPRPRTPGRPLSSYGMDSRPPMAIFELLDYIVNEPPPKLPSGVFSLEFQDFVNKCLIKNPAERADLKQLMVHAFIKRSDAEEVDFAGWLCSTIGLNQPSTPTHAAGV

IC50 (MEK1): 398 nM | IC50 (PI3Kα): 191 nM
SMILES: O=C(NOCCOCCOCCOCCN1CCN(c2nc(N3CCOCC3)nc(-n3c(C(F)F)nc4ccccc43)n2)CC1)c1ccc(F)c(F)c1Nc1ccc(I)cc1F [ST-162]
